Results taken from patent US4849207A, “Porphyrin derivatives” (Nihon Medi-Physics Co., Ltd., priority 1985, dated 1989).

How the values were obtained:
pancreatic cancer [1] = assay: Scintigraphy in cancer-bearing hamster; assay type: in vivo; details: 300 μCi i.v., 72 and 96 hours after administration
Procedure: (§1) Scintigraphy was obtained 72 and 96 hours after the administration by the use of a gamma-camera equipped with a medium energy high resolution type collimator.

[2] = system: inflammation (turpentine oil induced); assay: Distribution in cancer-bearing and inflammation-induced hamsters, inflammation to tissue; details: 72 hour post-injection
Procedure: as §1

tumor = assay: Distribution in cancer-bearing and inflammation-induced hamsters, tumor to tissue
Procedure: as §1

pancreatic cancer [3] = assay: Distribution of a radioactive diagnostic agent in cancer-bearing hamster (cancer/organ radioactivity level ratio); details: 300 μCi i.v., 96 hours after administration
Procedure: With lapse of time, the animals were sacrificed, and the organs were extracted and subjected to measurement of radioactivity and weight, from which the radioactivity level ratio between the cancer and each organ was determined.
With lapse of time, the animals were sacrificed, and the ogans were extracted and subjected to measurement of radioactivity and weight, from which the radioactivity level ratio between the cancer and each organ was determined.

[4] = system: inflammation (croton oil induced); assay: Distribution in inflammation-induced rats, inflammation to tissue; assay type: in vivo, SD rats
Procedure: SD rats of about 200 grams in bodyweight received croton oil (0.1 ml) at the right hind leg subcutaneously to induce inflammation. […] The radioactivity level ratio between the inflamation and each tissue was determined.

[5] = hamster, mean and s.d. for 3 animals, or mean for 2 animals
[6] = 72 hour post-injection, mean and s.d. for 3 animals, or mean for 2 animals
[7] = SD rat, 72 hour post-injection, mean and s.d. for 3 animals

2-[1-(^111 In-diethylenetriamine-tetraacetic acid-acetyloxyethane)oxyethyl]-4-[1-(2-hydroxyethyl)oxyethyl] Ga-deuteroporphyrin [^111 In--monoDTPA--EG Ga--DP]
scintigraphic imaging of the locus of cancer (pancreatic cancer [1]): the locus of cancer could be clearly imaged at both stages | imaging of inflammation compared with ^67 Ga citrate (in words) [2]: inferior to ^67 Ga citrate | Inflammation to tissue concentration ratio: Blood [2, 5]: 22.96 ± 9.56 | Inflammation to tissue concentration ratio: Heart [2, 5]: 0.49 ± 0.26 | Inflammation to tissue concentration ratio: Kidney [2, 5]: 0.33 ± 0.13 | Inflammation to tissue concentration ratio: Liver [2, 5]: 0.21 ± 0.16 | Inflammation to tissue concentration ratio: Lung [2, 5]: 0.21 ± 0.14 | Inflammation to tissue concentration ratio: Muscle [2, 5]: 8.71 ± 2.98 | Inflammation to tissue concentration ratio: Spleen [2, 5]: 0.06 ± 0.01 | imaging of tumor compared with ^67 Ga citrate (in words) (tumor; 72 hour post-injection): superior to ^67 Ga citrate | Tumor to tissue concentration ratio: Blood (tumor; [6]): 55.75 ± 10.61 | Tumor to tissue concentration ratio: Heart (tumor; [6]): 1.14 ± 0.28 | Tumor to tissue concentration ratio: Kidney (tumor; [6]): 0.79 ± 0.08 | Tumor to tissue concentration ratio: Liver (tumor; [6]): 0.21 ± 0.06 | Tumor to tissue concentration ratio: Lung (tumor; [6]): 0.52 ± 0.33 | Tumor to tissue concentration ratio: Muscle (tumor; [6]): 22.16 ± 6.53 | Tumor to tissue concentration ratio: Spleen (tumor; [6]): 0.16 ± 0.03 | affinities to tumor and inflammation (in words) (tumor; from Table 5, compared with each other): nearly equal in affinities to tumor and inflammation | Cancer/Blood radioactivity level ratio (pancreatic cancer [3]): 61.89 | Cancer/Heart radioactivity level ratio (pancreatic cancer [3]): 3.41 | Cancer/Kidney radioactivity level ratio (pancreatic cancer [3]): 0.91 | Cancer/Liver radioactivity level ratio (pancreatic cancer [3]): 0.53 | Cancer/Lung radioactivity level ratio (pancreatic cancer [3]): 1.33 | Cancer/Spleen radioactivity level ratio (pancreatic cancer [3]): 0.43 | Inflammation to tissue concentration ratio: Blood [4, 7]: 185.25 ± 82.70 | Inflammation to tissue concentration ratio: Heart [4, 7]: 2.40 ± 0.63 | Inflammation to tissue concentration ratio: Kidney [4, 7]: 1.42 ± 0.35 | Inflammation to tissue concentration ratio: Liver [4, 7]: 0.14 ± 0.04 | Inflammation to tissue concentration ratio: Lung [4, 7]: 1.43 ± 0.32 | Inflammation to tissue concentration ratio: Muscle [4, 7]: 19.23 ± 10.45 | Inflammation to tissue concentration ratio: Spleen [4, 7]: 0.18 ± 0.03 | accumulation in inflammation compared with ^67 Ga citrate (in words) ([4]; from Table 6): much lesser accumulation in inflammation than ^67 Ga citrate
